Assay results reported in patent US9944602B2, “Piperidinone herbicides” (E. I. DU PONT DE NEMOURS AND COMPANY, priority 2014, dated 2018).

Legend:
Assay type in all cases: in vivo
[1] = tested on: sedge, umbrella (small-flower umbrella sedge, Cyperus difformis); experiment: Test B flooded paddy test sedge, umbrella; conditions: Table B, Flood, 250 g ai/ha, scale 0 to 100
How it was run: (§1)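 2-leaf plants; flood 3 cm over soil; cpd into paddy water; water depth kept; greenhouse 13–15 d; visual rating vs controls.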

[2] = tested on: foxtail, giant (giant foxtail, Setaria faberii); experiment: Test A postemergence foxtail, giant; conditions: 0 to 100 scale, 0 is no effect, 100 is complete control
How it was run: (§2)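 Visual injury rating, 0–100 scale (0 = no effect, 100 = complete control), versus untreated controls ~10 d after treatment in greenhouse. Pre: directed soil spray onto seeded loam/sand. Post: foliar spray at 2–10 cm, 1–2 leaf stage. Solvent-surfactant formulation.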

[3] = tested on: foxtail, giant (giant foxtail, Setaria faberii); experiment: Test A preemergence foxtail, giant; conditions: 0 to 100 scale, 0 no effect, 100 complete control
How it was run: as §2

[4] = tested on: blackgrass (Alopecurus myosuroides); experiment: Test A postemergence blackgrass; conditions: 0 to 100 scale, 0 is no effect, 100 is complete control
How it was run: as §2

[5] = tested on: pigweed (Amaranthus retroflexus); experiment: Test A preemergence pigweed; conditions: 0 to 100 scale, 0 no effect, 100 complete control
How it was run: as §2

[6] = tested on: barnyardgrass (Echinochloa crus-galli); experiment: Test B flooded paddy test barnyardgrass; conditions: Table B, Flood, 250 g ai/ha, scale 0 to 100
How it was run: as §1

[7] = tested on: rice (Oryza sativa); experiment: Test B flooded paddy test rice; conditions: Table B, Flood, 250 g ai/ha, scale 0 to 100
How it was run: as §1

[8] = tested on: barnyardgrass (Echinochloa crus-galli); experiment: Test A postemergence barnyardgrass; conditions: 0 to 100 scale, 0 is no effect, 100 is complete control
How it was run: as §2

[9] = tested on: ryegrass, Italian (Italian ryegrass, Lolium multiflorum); experiment: Test A postemergence ryegrass, Italian; conditions: 0 to 100 scale, 0 is no effect, 100 is complete control
How it was run: as §2

[10] = tested on: ryegrass, Italian (Italian ryegrass, Lolium multiflorum); experiment: Test A preemergence ryegrass, Italian; conditions: 0 to 100 scale, 0 no effect, 100 complete control
How it was run: as §2

[11] = tested on: kochia (Kochia scoparia); experiment: Test A preemergence kochia; conditions: 0 to 100 scale, 0 no effect, 100 complete control
How it was run: as §2

[12] = tested on: kochia (Kochia scoparia); experiment: Test A postemergence kochia; conditions: 0 to 100 scale, 0 is no effect, 100 is complete control
How it was run: as §2

[13] = tested on: wheat (Triticum aestivum); experiment: Test A postemergence wheat; conditions: 0 to 100 scale, 0 is no effect, 100 is complete control
How it was run: as §2

[14] = tested on: ragweed (common ragweed, Ambrosia elatior); experiment: Test A postemergence ragweed; conditions: 0 to 100 scale, 0 is no effect, 100 is complete control
How it was run: as §2

[15] = tested on: galium (catchweed bedstraw, Galium aparine); experiment: Test A postemergence galium; conditions: 0 to 100 scale, 0 is no effect, 100 is complete control
How it was run: as §2

[16] = tested on: corn (Zea mays); experiment: Test A postemergence corn; conditions: 0 to 100 scale, 0 is no effect, 100 is complete control
How it was run: as §2

[17] = tested on: barnyardgrass (Echinochloa crus-galli); experiment: Test A preemergence barnyardgrass; conditions: 0 to 100 scale, 0 no effect, 100 complete control
How it was run: as §2

[18] = tested on: ragweed (common ragweed, Ambrosia elatior); experiment: Test A preemergence ragweed; conditions: 0 to 100 scale, 0 no effect, 100 complete control
How it was run: as §2

[19] = tested on: ducksalad (Heteranthera limosa); experiment: Test B flooded paddy test ducksalad; conditions: Table B, Flood, 250 g ai/ha, scale 0 to 100
How it was run: as §1

[20] = tested on: pigweed (Amaranthus retroflexus); experiment: Test A postemergence pigweed; conditions: 0 to 100 scale, 0 is no effect, 100 is complete control
How it was run: as §2

Compound	Plant response rating [1]	Plant response rating, Foxtail, Giant ([2]; 125 g ai/ha)	Plant response rating, Foxtail, Giant ([2]; 500 g ai/ha)	Foxtail, Giant plant response rating ([3]; 125 g ai/ha)	Foxtail, Giant plant response rating ([3]; 500 g ai/ha)	Plant response rating, Blackgrass ([4]; 125 g ai/ha)	Plant response rating, Blackgrass ([4]; 500 g ai/ha)	Pigweed plant response rating ([5]; 125 g ai/ha)	Pigweed plant response rating ([5]; 500 g ai/ha)	Plant response rating [6]	Plant response rating [7]	Plant response rating, Barnyardgrass ([8]; 125 g ai/ha)	Plant response rating, Barnyardgrass ([8]; 500 g ai/ha)	Plant response rating, Ryegrass, Italian ([9]; 125 g ai/ha)	Plant response rating, Ryegrass, Italian ([9]; 500 g ai/ha)	Ryegrass, Italian plant response rating ([10]; 125 g ai/ha)	Ryegrass, Italian plant response rating ([10]; 500 g ai/ha)	Kochia plant response rating ([11]; 125 g ai/ha)	Kochia plant response rating ([11]; 500 g ai/ha)	Plant response rating, Kochia ([12]; 125 g ai/ha)	further results
O=C(Nc1ccccc1C(F)(F)F)C1C(=O)N(C2CC2)CCC1c1ccc(F)cc1 (stereo not drawn) [Compound 50]	0	0	0	0	40	0	0	0	0	0	0	0	0	0	0	0	0	0	0	0	Plant response rating, Kochia ([12]; 500 g ai/ha): 0; Plant response rating, Wheat ([13]; 125 g ai/ha): 0; Plant response rating, Wheat ([13]; 500 g ai/ha): 0; Plant response rating, Ragweed ([14]; 125 g ai/ha): 0; Plant response rating, Ragweed ([14]; 500 g ai/ha): 0; Plant response rating, Galium ([15]; 125 g ai/ha): 0; Plant response rating, Galium ([15]; 500 g ai/ha): 0; Plant response rating, Corn ([16]; 125 g ai/ha): 0; Plant response rating, Corn ([16]; 500 g ai/ha): 0; Barnyardgrass plant response rating ([17]; 125 g ai/ha): 0; Barnyardgrass plant response rating ([17]; 500 g ai/ha): 0; Ragweed plant response rating ([18]; 125 g ai/ha): 0; Ragweed plant response rating ([18]; 500 g ai/ha): 0; Plant response rating [19]: 0; Plant response rating, Pigweed ([20]; 125 g ai/ha): 0; Plant response rating, Pigweed ([20]; 500 g ai/ha): 0
O=C(Nc1ccccc1C(F)(F)F)C1C(=O)N(Cc2ccccc2)CCC1c1ccc(F)cc1 (stereo not drawn) [Compound 51]	0	0	0	0	0	0	0	0	0	0	0	0	0	0	0	0	0	0	0	0	Plant response rating, Kochia ([12]; 500 g ai/ha): 0; Plant response rating, Wheat ([13]; 125 g ai/ha): 0; Plant response rating, Wheat ([13]; 500 g ai/ha): 0; Plant response rating, Ragweed ([14]; 125 g ai/ha): 0; Plant response rating, Ragweed ([14]; 500 g ai/ha): 0; Plant response rating, Galium ([15]; 125 g ai/ha): 0; Plant response rating, Galium ([15]; 500 g ai/ha): 0; Plant response rating, Corn ([16]; 125 g ai/ha): 0; Plant response rating, Corn ([16]; 500 g ai/ha): 0; Barnyardgrass plant response rating ([17]; 125 g ai/ha): 0; Barnyardgrass plant response rating ([17]; 500 g ai/ha): 0; Ragweed plant response rating ([18]; 125 g ai/ha): 0; Ragweed plant response rating ([18]; 500 g ai/ha): 0; Plant response rating [19]: 0; Plant response rating, Pigweed ([20]; 125 g ai/ha): 0; Plant response rating, Pigweed ([20]; 500 g ai/ha): 0
O=C1NCC[C@@H](c2ccc(C(F)(F)F)cc2)[C@@H]1C(=O)Nc1ccc(F)c(F)c1F [Compound 55]	0	0	0	0	0	0	0	0	0	0	0	0	0	0	0	0	0	0	0	0	Plant response rating, Kochia ([12]; 500 g ai/ha): 0; Plant response rating, Wheat ([13]; 125 g ai/ha): 0; Plant response rating, Wheat ([13]; 500 g ai/ha): 0; Plant response rating, Ragweed ([14]; 125 g ai/ha): 0; Plant response rating, Ragweed ([14]; 500 g ai/ha): 0; Plant response rating, Galium ([15]; 125 g ai/ha): 0; Plant response rating, Galium ([15]; 500 g ai/ha): 0; Plant response rating, Corn ([16]; 125 g ai/ha): 0; Plant response rating, Corn ([16]; 500 g ai/ha): 0; Barnyardgrass plant response rating ([17]; 125 g ai/ha): 0; Barnyardgrass plant response rating ([17]; 500 g ai/ha): 0; Ragweed plant response rating ([18]; 125 g ai/ha): 0; Ragweed plant response rating ([18]; 500 g ai/ha): 0; Plant response rating [19]: 0; Plant response rating, Pigweed ([20]; 125 g ai/ha): 0; Plant response rating, Pigweed ([20]; 500 g ai/ha): 0
